Measured values: article PMC11091220, “Metabolism-driven in vitro/in vivo disconnect of an oral ERɑ VHL-PROTAC” (Communications Biology, 2024)
Like-named read-outs stand apart in the source and are kept apart here.

Experiments:
[1] = Mouse microsome intrinsic clearance; type: in vitro ADME
Procedure: Mouse liver microsomes (Male CD-1) are obtained from Corning at a concentration of 20 mg/mL protein. The test compound was prepared to 10 mM in 100% DMSO and further diluted to 100 μM in 100% acetonitrile. The microsomal incubations were prepared in phosphate buffered solution pH 7.4 containing 1 mg/mL microsomal protein, 1 mM NADPH and a final compound concentration of 1 μM. Following a pre-incubation with NADPH for 8 min, reactions were initiated through the addition of the test compound (final volume 250 µL) and incubated at 37 °C in a water bath for 30 min. At each time point (0.5, 5, 10, 15, 20, 30 min) 20 μL of incubation mixture was quenched with 100 μL of 100% ice cold acetonitrile. Samples were shaken at 800 rpm for 2 min and centrifuged at 4000 rpm for 20 min at 4 °C to pellet precipitated protein. The supernatant fraction was diluted 1:5 with deionised water, shaken at 1000 rpm for 2 min, and further diluted 1:1 with deionised water. Samples were analysed by LC-MS/MS[17].

[2] = Metabolite identification in mouse hepatocytes; type: in vitro ADME; details: in vitro mouse hepatocytes
Procedure: CD-1 male mouse hepatocytes (BioreclamationIVT, M005052, lot:LRH) were thawed and warmed to 37 °C using Lebovitz’s L-15 medium and Cell yield/cell density and viability were assessed by a Nexcelom cell counter.
Incubations were conducted on a Hamilton robot, 0.25 mL of the hepatocyte suspension (1 million cells/mL) was transferred for each incubation into Nunc 96-deepwell plate. Substrate (2.5 µL of 0.5 mM in acetonitrile) was added (final concentration of 5 µM) and then incubated for 60 minutes at 37 °C. The samples were quenched with an equal volume of acetonitrile, spun at 3500 rpm for 10 minutes and 0.2 mL of the supernatant was transferred into 0.6 mL of water for analysis by UHPLC-UV-HRAMS.

[3] = Mouse pharmacokinetics, i.v./oral and enabling formulations; type: in vivo
Procedure: (*) AUC0-6 (data BLQ beyond 6 hours). TEXT PRINTED IN THE PICTURE: (e) Formulation SF: Dose normalised Cmax (μM): 0.009 (Oral dose (mg/kg): 1); Dose normalised AUC0-12 (μM.h): 0.02* (Oral dose (mg/kg): 1) | (e) Formulation EF1: Dose normalised Cmax (μM): 0.023 (Oral dose (mg/kg): 100); Dose normalised AUC0-12 (μM.h): 0.22 (Oral dose (mg/kg): 100) | (e) Formulation EF2: Dose normalised Cmax (μM): 0.002 (Oral dose (mg/kg): 100); Dose normalised AUC0-12 (μM.h): 0.009 (Oral dose (mg/kg): 100) | (e) Formulation EF3: Dose normalised Cmax (μM): 0.045 (Oral dose (mg/kg): 100); Dose normalised AUC0-12 (μM.h): 0.12 (Oral dose (mg/kg): 100); Dose normalised Cmax (μM): 0.016 (Oral dose (mg/kg): 30); Dose normalised AUC0-12 (μM.h): 0.06* (Oral dose (mg/kg): 30); Dose normalised Cmax (μM): 0.017 (Oral dose (mg/kg): 10); Dose normalised AUC0-12 (μM.h): 0.06* (Oral dose (mg/kg): 10) | (e) Formulation EF4: Dose normalised Cmax (μM): 0.022 (Oral dose (mg/kg): 100); Dose normalised AUC0-12 (μM.h): 0.10 (Oral dose (mg/kg): 100) | (e) Formulation EF5: Dose normalised Cmax (μM): 0.050 (Oral dose (mg/kg): 100); Dose normalised AUC0-12 (μM.h): 0.25 (Oral dose (mg/kg): 100); Dose normalised Cmax (μM): 0.013 (Oral dose (mg/kg): 30); Dose normalised AUC0-12 (μM.h): 0.045* (Oral dose (mg/kg): 30); Dose normalised Cmax (μM): 0.023 (Oral dose (mg/kg): 10); Dose normalised AUC0-12 (μM.h): 0.076* (Oral dose (mg/kg): 10)
Each plasma sample ([…]) was prepared using an appropriate dilution factor, and compared against an 11-point standard calibration curve (1-10000 nM) prepared in DMSO and spiked into blank plasma. Acetonitrile ([…]) was added with the internal standard, followed by centrifugation at 3000 rpm for 10 minutes. The supernatant ([…]) was then diluted in […] acetonitrile:water (75:25) and analyzed via UPLC-MS/MS.
The MS/MS instrument used was either a Waters XEVO® TQ-S, Waters XEVO® TQ-D, or API 4000 (AB Sciex). The ultra-mass spectrometer used for sample analysis was completed in the MRM mode (MS/MS). Reverse-phase HPLC with a C18 column was used to separate the analytes. A mobile phase of 99% water/0.1% formic acid (solvent A) and a solvent phase of 99% acetonitrile/0.1% formic acid (solvent B) was used. A generic LC gradient elution was used at a flow rate of 0.5 mL/min with 95% solvent A and 5% solvent B for 0.3 min after which the concentration of solvent B was increased to 95% over 0.9 min before restoring it back to 5% for the remaining 0.5 min. Mass spectrometer methods were optimised for each compound.

With `Cc1ncsc1-c1ccc(CNC(=O)[C@@H]2C[C@@H](O)CN2C(=O)[C@@H](NC(=O)COCCCOCCCOc2cc(F)c([C@@H]3c4[nH]c5ccccc5c4C[C@@H](C)N3CC(C)(C)F)c(F)c2)C(C)(C)C)cc1` [Compound 5] the “mouse liver microsomes stability” value [1] was 22 µL/min/mg protein, the major metabolic liability [2] was “formation of a carboxylic acid metabolite 8” and the “Plasma conc (total)” value ([3]; IV 0.5 mg/kg, mouse, 0.03 h, listed as AZ'6421, 0.5 mg/kg) was 1770 nM. The “Plasma conc (total)” value ([3]; IV 0.5 mg/kg, 0.17 h, listed as AZ'6421, 0.5 mg/kg) was 219 nM, the “Plasma conc (total)” value ([3]; IV 0.5 mg/kg, 0.5 h, listed as AZ'6421, 0.5 mg/kg) was 58.2 nM and the “Plasma conc (total)” value ([3]; IV 0.5 mg/kg, 1 h, listed as AZ'6421, 0.5 mg/kg) was 27.9 nM. The “Plasma conc (total)” value ([3]; IV 0.5 mg/kg, 2 h, listed as AZ'6421, 0.5 mg/kg) was 15.2 nM, the “Plasma conc (total)” value ([3]; IV 0.5 mg/kg, 4 h, listed as AZ'6421, 0.5 mg/kg) was 6.74 nM and the “Plasma conc (total)” value ([3]; IV 0.5 mg/kg, 6 h, listed as AZ'6421, 0.5 mg/kg) was 4.38 nM. For the same molecule, the “Plasma conc (total)” value ([3]; IV 0.5 mg/kg, 8 h, listed as AZ'6421, 0.5 mg/kg) was 2.82 nM, the “Plasma conc (total)” value ([3]; Oral 1 mg/kg in SF, mouse, 0.5 h, listed as AZ'6421, 1 mg/kg) was 4.03 nM and the “Plasma conc (total)” value ([3]; Oral 1 mg/kg in SF, 1 h, listed as AZ'6421, 1 mg/kg) was 6.69 nM. For the same molecule, the concentration at 0.03 h ([3]; mouse, plasma, iv, 0.5 mg/kg, IV 0.5 mg/kg, mouse, 0.03 h, read-out: Plasma conc (total)) was 1990 nM, the concentration at 0.17 h ([3]; mouse, plasma, iv, 0.5 mg/kg, IV 0.5 mg/kg, 0.17 h, read-out: Plasma conc (total)) was 261 nM and the concentration at 0.5 h ([3]; mouse, plasma, iv, 0.5 mg/kg, IV 0.5 mg/kg, 0.5 h, read-out: Plasma conc (total)) was 89 nM. For the same molecule, the concentration at 1 h ([3]; mouse, plasma, iv, 0.5 mg/kg, IV 0.5 mg/kg, 1 h, read-out: Plasma conc (total)) was 41.9 nM, the concentration at 2 h ([3]; mouse, plasma, iv, 0.5 mg/kg, IV 0.5 mg/kg, 2 h, read-out: Plasma conc (total)) was 16.9 nM and the concentration at 4 h ([3]; mouse, plasma, iv, 0.5 mg/kg, IV 0.5 mg/kg, 4 h, read-out: Plasma conc (total)) was 7.09 nM. The concentration at 6 h ([3]; mouse, plasma, iv, 0.5 mg/kg, IV 0.5 mg/kg, 6 h, read-out: Plasma conc (total)) was 3.27 nM, the concentration at 8 h ([3]; mouse, plasma, iv, 0.5 mg/kg, IV 0.5 mg/kg, 8 h, read-out: Plasma conc (total)) was 2.02 nM and the clearance ([3]; mouse, plasma, iv, 0.5 mg/kg i.v., read-out: mouse in vivo clearance) was 22 mL/min/kg. The concentration at 0.5 h ([3]; mouse, plasma, po, 1 mg/kg, Oral 1 mg/kg in SF, mouse, 0.5 h, read-out: Plasma conc (total)) was 2.24 nM, the concentration at 1 h ([3]; mouse, plasma, po, 1 mg/kg, Oral 1 mg/kg in SF, 1 h, read-out: Plasma conc (total)) was 9.06 nM and the concentration at 4 h ([3]; mouse, plasma, po, 1 mg/kg, Oral 1 mg/kg in SF, 4 h, read-out: Plasma conc (total)) was 2.98 nM. It also gave an AUC ([3]; plasma, po, 1 mg/kg p.o., SF, mouse, read-out: oral exposure (AUC)) of 0.02 µM·h.
